Earlier results on one molecule are cited in patent US20170027963A1, “DELIVERY OF NON-STEROIDAL AGENTS TO THE BRAIN VIA THE NASAL TRACT TO TREAT NEUROLOGICAL DISORDERS” (priority 2014, published 2017).

For the data set the following is noted: prescribed ibuprofen for more than five years vs those who did not; US veterans aged 55 and older.

In the case of `CC(C)Cc1ccc(C(C)C(=O)O)cc1` (stereo not shown) [ibuprofen], the “less likely to develop Alzheimer's disease” value is 40%.
